Data set [1] has as its target EphA4 ligand binding domain (UniProt P54764). In words: FPA, displacement of FITC-KYL peptide from EphA4 LBD; grade legend: 5 µM ≤ C.
Another data set deals with EphA2 receptor (Homo sapiens, UniProt P29317). The data set can be described thus: ITC with EphA2 receptor. The data set is classed as binding. The note with it: same experimental conditions as EphA4 ITC. The procedure: (§1) isothermal titration calorimetry (ITC) to measure binding constant was performed on a Model ITC200 calorimeter from Microcal/GE Life Sciences. When indicated, measurements were performed in a reverse way—i.e., the protein was titrated into the compound solution. A total of 8 μl EphA4 solution (1.65 mM) was injected into the cell containing 165 µM of compound per injection. All titrations were performed at 25° C. in PBS buffer supplemented with 10% DMSO. Experimental data were analyzed using Microcal Origin software provided by the ITC manufacturer (Microcal).
Chain of EphA2 receptor (P29317 24-976): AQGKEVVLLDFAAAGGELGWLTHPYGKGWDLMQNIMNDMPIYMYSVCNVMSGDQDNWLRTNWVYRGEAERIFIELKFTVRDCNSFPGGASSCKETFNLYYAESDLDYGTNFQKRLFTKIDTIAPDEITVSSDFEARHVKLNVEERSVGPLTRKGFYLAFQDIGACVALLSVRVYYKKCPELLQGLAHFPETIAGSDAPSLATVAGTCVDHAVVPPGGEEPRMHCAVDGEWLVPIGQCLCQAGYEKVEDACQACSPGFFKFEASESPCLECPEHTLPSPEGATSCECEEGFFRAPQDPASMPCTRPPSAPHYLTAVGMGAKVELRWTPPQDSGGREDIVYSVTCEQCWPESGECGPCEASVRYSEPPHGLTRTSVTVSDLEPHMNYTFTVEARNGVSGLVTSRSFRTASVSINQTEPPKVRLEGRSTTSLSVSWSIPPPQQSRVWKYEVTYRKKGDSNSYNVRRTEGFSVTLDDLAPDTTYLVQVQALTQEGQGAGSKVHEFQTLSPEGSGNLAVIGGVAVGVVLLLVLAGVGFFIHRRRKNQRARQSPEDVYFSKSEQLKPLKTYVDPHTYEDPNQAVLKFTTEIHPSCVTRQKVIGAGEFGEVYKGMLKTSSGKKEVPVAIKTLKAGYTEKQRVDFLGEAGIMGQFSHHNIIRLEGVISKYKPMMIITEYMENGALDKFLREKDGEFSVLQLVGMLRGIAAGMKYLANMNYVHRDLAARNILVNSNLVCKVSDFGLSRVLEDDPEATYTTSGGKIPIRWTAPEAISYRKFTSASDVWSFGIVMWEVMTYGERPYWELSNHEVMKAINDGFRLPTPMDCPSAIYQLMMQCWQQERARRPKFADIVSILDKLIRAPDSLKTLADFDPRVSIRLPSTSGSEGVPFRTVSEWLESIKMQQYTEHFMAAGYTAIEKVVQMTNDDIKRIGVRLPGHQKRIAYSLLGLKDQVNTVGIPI

The target in another data set is 15N-labeled EphA4-LBD (Homo sapiens, UniProt P54764). The data set can be described thus: 2D-[15N,1H]-HSQC NMR detection of binding. The conditions noted are these: 300 K. The text has this:
NMR spectra of ^15N-labeled EphA4-LBD were acquired on 700 MHz Bruker Avance spectrometer equipped with TCI cryoprobe. All NMR data were processed and analyzed using TOPSPIN2.1 (Bruker Biospin Corp., Billerica, Mass., USA) and SPARKY3.1 (University of California, San Francisco, Calif., USA).

The subject of data set [2] is SOD1(G93A)-mutant mice. In words: In vivo efficacy in an animal model of ALS. The procedure:
Equal number of SOD1(G93A)-mutant mice of the same gender from same litter were randomly divided into two groups (n=12).
FIG. 3. […] The data were analyzed using the Kaplan-Meier method. Animal studies. Equal number of SOD1(G93A)-mutant mice of the same gender from same litter were randomly divided into two groups. […] Animals were assessed daily for the time of onset of hind limb tremor and loss of splay reflex. The endpoint was designated as the point when the mouse could no longer roll over within 10 s after being pushed onto its side. At this stage, mice were killed. Disease onset and survival time were compared using the Kaplan-Meier method. […] Values are given as mean±SD. Preliminary BBB penetration and PK studies were performed by Agilux (Cambridge, Mass.) and in house.

For data set [3], the system named is SOD1(G93A)-mutant mice. In words: Pilot study for toxicity and dose in SOD1(G93A)-mutant mice. The note with it: 2 mice. The class given is in vivo.
Data set [4] deals with T1, EphA4 LBD (Homo sapiens, UniProt P54764). In words: Fluorescence polarization assay (FPA), displacement of FITC-labeled KYL peptide. The class given is binding. The note with it: PBS pH 7.2. The procedure: Fluorescence Polarization Assay (FPA):
The EphA4 binding KYL peptide ([…], Murai et al. Mol. Cell. Neurosci. 2003, 24:1000-1011) was labeled at the N-terminus with fluorescein isothiocyanate (FITC) and purified by HPLC. For competitive binding assays, 1 μL of 200 μM EphA4 LBD was pre-incubated with the tested compounds at various concentrations in 98 μL PBS (pH=7.2) in 96-well black plates at room temperature for 10 min, and then 1 μL of 500 μM FITC labeled EphA4 peptide was added to produce a final volume of 100 μL. The KYL and DMSO were incubated in each assay as positive and negative controls, respectively. After 30 min of incubation at room temperature, the polarization values in millipolarization units were measured at excitation/emission wavelengths of 480/535 nm with a multilabel plate reader (PerkinElmer, Waltham, Mass., USA). Ki value was determined by fitting the experimental data to a Sigmoidal dose-response (variable slope) nonlinear regression model (GraphPad Prism version 5.01 for Windows, GraphPad Software, San Diego, Calif., USA).
(§2) (B) EphA4-LBD was dissolved in 50 mM potassium phosphate buffer (pH 6.5), containing 100 mM NaCl. ITC were measured.
Target sequence in this assay (P54764 30-209 limits assumed): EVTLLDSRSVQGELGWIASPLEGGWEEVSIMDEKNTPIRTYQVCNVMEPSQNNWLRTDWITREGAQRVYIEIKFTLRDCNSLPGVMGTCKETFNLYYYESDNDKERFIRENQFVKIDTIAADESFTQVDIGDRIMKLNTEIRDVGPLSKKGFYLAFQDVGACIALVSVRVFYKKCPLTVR
A general note: In fluorescence polarisation assays a small probe gives low polarisation when free and higher when bound to something large.

Data set [5] addresses T1, EphA4 LBD. The data set can be described thus: Isothermal titration calorimetry (ITC). The class given is binding. The note with it: 25° C., PBS with 10% DMSO. The procedure: Isothermal Titration Calorimetry (ITC):
as §1, §2

A further data set concerns the target EphA4 (Homo sapiens, UniProt P54764). The conditions noted are these: previously reported; cited from earlier work.
The target in data set [6] is EphA4 ligand binding domain (UniProt P54764). The data set can be described thus: ITC. (Isothermal titration calorimetry measures the heat released or taken up as one component is titrated into another.)
Chain of EphA4 ligand binding domain (P54764 29-209 limits assumed): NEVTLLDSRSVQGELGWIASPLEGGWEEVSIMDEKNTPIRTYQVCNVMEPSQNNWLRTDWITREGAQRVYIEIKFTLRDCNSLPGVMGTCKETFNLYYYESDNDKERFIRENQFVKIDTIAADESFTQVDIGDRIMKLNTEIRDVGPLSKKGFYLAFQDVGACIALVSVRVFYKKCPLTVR
The target in another data set is EphA4-LBD mutant 159A (UniProt P54764). The data set can be described thus: ITC.
Chain of EphA4-LBD mutant 159A (P54764 other isoform, or with tags, fused parts or gaps mutant limits assumed): as the sequence (P54764 29-209 limits assumed) above, with I31A counted along it
For the next data set, the target named is EphA4-LBD mutant 159G (UniProt P54764). In words: ITC.
Chain of EphA4-LBD mutant 159G (P54764 other isoform, or with tags, fused parts or gaps mutant limits assumed): as the sequence (P54764 29-209 limits assumed) above, with I31G counted along it
Data set [7] addresses EphA4 ligand binding domain (UniProt P54764). The data set can be described thus: ITC; grade legend: A < 1 µM.
Data set [8] has the same target. The data set can be described thus: FPA, displacement of FITC-KYL peptide from EphA4 LBD; repeated experiments.

As a reminder, the Ki is a dissociation constant, usually derived from enzyme kinetics or from competition with a known ligand. High values mean lower affinity, low ones higher affinity. The Kd is the equilibrium constant for the complex coming apart. A higher Kd goes with weaker binding.

Where a SMILES comes first, the peptide text is derived from it. [ ]: non-standard residue; d: D form. Trp(5-OH) = N[C@@H](Cc1c[nH]c2ccc(O)cc12)C(=O)O; Phe(4-Cl) = N[C@@H](Cc1ccc(Cl)cc1)C(=O)O; 4Pal = N[C@@H](Cc1ccncc1)C(=O)O; Ava = NCCCCC(=O)O

Chain of EphA4 (P54764 20-986, species assumed): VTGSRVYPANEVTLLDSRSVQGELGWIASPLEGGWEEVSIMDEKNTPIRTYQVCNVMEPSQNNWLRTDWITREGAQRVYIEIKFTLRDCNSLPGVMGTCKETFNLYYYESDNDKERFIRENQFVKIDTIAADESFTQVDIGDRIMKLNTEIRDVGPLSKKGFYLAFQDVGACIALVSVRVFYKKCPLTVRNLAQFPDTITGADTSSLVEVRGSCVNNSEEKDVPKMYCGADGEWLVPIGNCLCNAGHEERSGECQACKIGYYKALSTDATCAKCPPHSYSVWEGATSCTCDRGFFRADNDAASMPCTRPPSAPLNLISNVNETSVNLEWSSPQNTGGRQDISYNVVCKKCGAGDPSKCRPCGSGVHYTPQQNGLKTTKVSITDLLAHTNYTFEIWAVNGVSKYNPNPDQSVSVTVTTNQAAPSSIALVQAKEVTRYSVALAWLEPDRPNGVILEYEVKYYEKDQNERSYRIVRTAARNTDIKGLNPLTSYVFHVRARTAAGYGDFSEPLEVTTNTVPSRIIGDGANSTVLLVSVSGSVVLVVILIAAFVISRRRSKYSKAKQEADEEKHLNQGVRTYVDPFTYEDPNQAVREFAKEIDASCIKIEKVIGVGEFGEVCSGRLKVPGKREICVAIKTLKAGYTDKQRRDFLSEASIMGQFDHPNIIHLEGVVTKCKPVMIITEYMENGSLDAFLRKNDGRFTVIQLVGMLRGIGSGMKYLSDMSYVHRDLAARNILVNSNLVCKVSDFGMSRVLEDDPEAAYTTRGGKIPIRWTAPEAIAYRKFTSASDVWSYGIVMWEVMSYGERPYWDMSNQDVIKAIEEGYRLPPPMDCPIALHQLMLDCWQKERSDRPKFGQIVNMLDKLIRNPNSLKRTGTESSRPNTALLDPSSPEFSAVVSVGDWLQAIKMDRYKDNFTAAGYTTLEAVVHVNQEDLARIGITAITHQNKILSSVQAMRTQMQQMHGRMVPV
Chain of 15N-labeled EphA4-LBD (P54764 30-209 limits assumed): as the sequence (P54764 30-209 limits assumed) above

“Compound 11: 4-amino-N-((S)-1-((S)-3-(4-chlorophenyl)-1-((S)-1-(2-(naphthalen-1-yl)ethylamino)-1-oxo-3-(pyridin-4-yl)propan-2-ylamino)-1-oxopropan-2-ylamino)-3-(5-hydroxy-1H-indol-3-yl)-1-oxopropan-2-yl)butanamide (peptide)” came in with a Ki in data set [1] greater than 5000 nM.

With `COc1ccc2[nH]cc(CCNC(=O)[C@H](Cc3ccncc3)NC(=O)[C@H](Cc3ccc(Cl)cc3)NC(=O)[C@H](Cc3c[nH]c4ccc(O)cc34)NC(=O)CCCN)c2c1` [Compound 7, 4-amino-N-((S)-1-((S)-3-(4-chlorophenyl)-1-((S)-1-(2-(5-methoxy-1H-indol-3-yl)ethylamino)-1-oxo-3-(pyridin-4-yl)propan-2-ylamino)-1-oxopropan-2-ylamino)-3-(5-hydroxy-1H-indol-3-yl)-1-oxopropan-2-yl)butanamide], on EphA2 receptor, the “Binding to the EphA2 receptor by ITC” value is “not observed”. The “Binding exchange regime by NMR” value on 15N-labeled EphA4-LBD is “slow exchange in the NMR time scale”. Besides, in the data set on SOD1(G93A)-mutant mice [2] (30 mg/Kg i.p. daily in saline), the “Effect on disease onset” value is on record as “without affecting the disease onset”. Also, the “Kaplan-Meier survival compared to control mice” value with SOD1(G93A)-mutant mice [2] (30 mg/kg daily i.p.) is reported as “increased survival”. The “Average survival time from disease onset to end point” value in the data set with SOD1(G93A)-mutant mice [2] (30 mg/kg daily i.p. from postnatal day 60, mean±SD, control 28.2±4.2 days, p<0.01) worked out at 38.6 ± 5.7 days. For the same compound, the Average life span with SOD1(G93A)-mutant mice [2] (30 mg/kg daily i.p. from postnatal day 60, n=12, mean±SD, control 134.3±7.2 days, p<0.01) stood at 142.8 ± 6.9 days. The “Signs of toxicity compared to control mice” value with SOD1(G93A)-mutant mice [3] (30 mg/Kg daily i.p. for several weeks) is recorded as “no adverse sign of toxicity were observed”. Also, the “Survival in pilot study” value with SOD1(G93A)-mutant mice [3] (30 mg/Kg daily i.p.) is “increased survival”.

At EphA4 LBD [4], `NCCCC(=O)N[C@@H](Cc1c[nH]c2ccc(O)cc12)C(=O)N[C@@H](Cc1ccc(Cl)cc1)C(=O)N[C@@H](Cc1ccncc1)C(=O)NCCc1cccc2ccccc12` [Compound 11, 4-amino-N-((S)-1-((S)-3-(4-chlorophenyl)-1-((S)-1-(2-(naphthalen-1-yl)ethylamino)-1-oxo-3-(pyridin-4-yl)propan-2-ylamino)-1-oxopropan-2-ylamino)-3-(5-hydroxy-1H-indol-3-yl)-1-oxopropan-2-yl)butanamide] had a Ki of no less than 5000 nM.

For `NCCCC(=O)N[C@@H](Cc1c[nH]c2ccc(O)cc12)C(=O)N[C@@H](Cc1ccc(Cl)cc1)C(=O)N[C@@H](Cc1ccncc1)C(=O)NCCc1c[nH]c2ccccc12` [Compound 5, N-((S)-1-((S)-1-((S)-1-(2-(1H-indol-3-yl)ethylamino)-1-oxo-3-(pyridin-4-yl)propan-2-ylamino)-3-(4-chlorophenyl)-1-oxopropan-2-ylamino)-3-(5-hydroxy-1H-indol-3-yl)-1-oxopropan-2-yl)-4-aminobutanamide], on EphA4 LBD [4], the inhibitory constant (Ki) lay within 1000 to 5000 nM. Besides, the Kd at EphA4 LBD [5] is 1000 to 5000 nM.

For `NCCCC(=O)N[C@@H](Cc1c[nH]c2ccc(O)cc12)C(=O)N[C@@H](Cc1ccc(Cl)cc1)C(=O)N[C@@H](Cc1ccncc1)C(=O)NCCc1c[nH]c2ccc(O)cc12` [Compound 8, 4-amino-N-((S)-1-((S)-3-(4-chlorophenyl)-1-((S)-1-(2-(5-hydroxy-1H-indol-3-yl)ethylamino)-1-oxo-3-(pyridin-4-yl)propan-2-ylamino)-1-oxopropan-2-ylamino)-3-(5-hydroxy-1H-indol-3-yl)-1-oxopropan-2-yl)butanamide], on EphA4 LBD [4], the inhibitory constant (Ki) is 1000 to 5000 nM. Besides, the Kd on EphA4 LBD [5] was in the range of 1000 to 5000 nM.

For KYLPYWPVLSSL, on EphA4, the “Kd for EphA4 (reported peptides)” value is given as “low micromolar range”.

`NCCCC(=O)N[C@@H](Cc1c[nH]c2ccc(O)cc12)C(=O)N[C@@H](Cc1ccc(Cl)cc1)C(=O)N[C@@H](Cc1ccncc1)C(=O)NCCc1c[nH]c2ccc(Cl)cc12` [Compound 9, 4-amino-N-((S)-1-((S)-1-((S)-1-(2-(5-chloro-1H-indol-3-yl)ethylamino)-1-oxo-3-(pyridin-4-yl)propan-2-ylamino)-3-(4-chlorophenyl)-1-oxopropan-2-ylamino)-3-(5-hydroxy-1H-indol-3-yl)-1-oxopropan-2-yl)butanamide]: the inhibition constant (Ki) at EphA4 LBD [4] lay within 1000 to 5000 nM.

`NCCCCC(=O)N[C@@H](Cc1c[nH]c2ccc(O)cc12)C(=O)N[C@@H](Cc1ccc(Cl)cc1)C(=O)N[C@@H](Cc1ccncc1)C(=O)N[C@H](Cc1c[nH]c2ccccc12)C(N)=O` [Compound 4, 5-amino-N-((S)-1-((S)-1-((S)-1-((R)-1-amino-3-(1H-indol-3-yl)-1-oxopropan-2-ylamino)-1-oxo-3-(pyridin-4-yl)propan-2-ylamino)-3-(4-chlorophenyl)-1-oxopropan-2-ylamino)-3-(5-hydroxy-1H-indol-3-yl)-1-oxopropan-2-yl)pentanamide] (H-[Ava][Trp(5-OH)][Phe(4-Cl)][4Pal][dW]-NH2) had a Ki at EphA4 LBD [4] of 1000 to 5000 nM.

On to “Compound 7: 4-amino-N-((S)-1-((S)-3-(4-chlorophenyl)-1-((S)-1-(2-(5-methoxy-1H-indol-3-yl)ethylamino)-1-oxo-3-(pyridin-4-yl)propan-2-ylamino)-1-oxopropan-2-ylamino)-3-(5-hydroxy-1H-indol-3-yl)-1-oxopropan-2-yl)butanamide (peptide)”, for which the dissociation constant Kd in data set [6] was 450 nM; in the data set with EphA4-LBD mutant 159A, 9090 nM; with EphA4-LBD mutant 159G it was 3660 nM; in data set [7], less than 1000 nM. The same compound registered a Ki in data set [8] of 500 to 660 nM.

`COc1ccc2c(CCNC(=O)[C@H](Cc3ccncc3)NC(=O)[C@H](Cc3ccc(Cl)cc3)NC(=O)[C@H](Cc3c[nH]c4ccc(O)cc34)NC(=O)CCCN)c[nH]c2c1` [Compound 10, 4-amino-N-((S)-1-((S)-3-(4-chlorophenyl)-1-((S)-1-(2-(6-methoxy-1H-indol-3-yl)ethylamino)-1-oxo-3-(pyridin-4-yl)propan-2-ylamino)-1-oxopropan-2-ylamino)-3-(5-hydroxy-1H-indol-3-yl)-1-oxopropan-2-yl)butanamide] returned a Ki on EphA4 LBD [4] of 1000 to 5000 nM. The compound further yielded an equilibrium dissociation constant (Kd) on EphA4 LBD [5] of less than 1000 nM.

On to `NCCCC(=O)N[C@@H](Cc1c[nH]c2ccc(O)cc12)C(=O)N[C@@H](Cc1ccc(Cl)cc1)C(=O)N[C@@H](Cc1ccncc1)C(=O)NCCc1c[nH]c2ccc(F)cc12` [Compound 6, 4-amino-N-((S)-1-((S)-3-(4-chlorophenyl)-1-((S)-1-(2-(5-fluoro-1H-indol-3-yl)ethylamino)-1-oxo-3-(pyridin-4-yl)propan-2-ylamino)-1-oxopropan-2-ylamino)-3-(5-hydroxy-1H-indol-3-yl)-1-oxopropan-2-yl)butanamide], for which, on EphA4 LBD [4], the inhibition constant (Ki) lay within 1000 to 5000 nM.
